Publication PMC6930660, “Synthesis and Comparative Structure–Activity Study of Carbohydrate-Based Phenolic Compounds as α-Glucosidase Inhibitors and Antioxidants” (Molecules, 2019)
One block for each compound: values may come before it.

Experiments:
[1] = DPPH radical scavenging assay (antioxidant activity); conditions: for EC50: MES-NaOH buffer pH 6.0, 15 min in the dark; for Antioxidant Trolox-eq (TE): trolox-equivalent (mol-trolox/mol-sample) = slope of sample / slope of trolox
Experimental: The antioxidant activity was assessed by employing the 2,2-diphenyl-1-picrylhydrazyl (DPPH) radical scavenging assay, according to the previously published method. In total, 100 μL of each sample (1000–10 μg/mL in 50%EtOH/ H2O ) or trolox (160–0 μM in 50% EtOH/ H2O ), and 50 μL of 2-(N-morpholino)ethanesulfonic acid (MES)-NaOH buffer (200 mM, pH = 6.0), and 50 μL of an 800 μM DPPH diluted in 99.5% EtOH were mixed in 96-well plates. Following shaking the microplate for 15 min in the dark, the absorbance was recorded at 520 nm using a microplate reader (Bio-Rad, Model 680). Effective percentages (%) were calculated as follows: Effective percentages (%) = 1−As/Ab ×100 where As is the absorbance of the sample and Ab is the absorbance of the blank (without samples, 50% EtOH/ H2O solution was used instead).
The trolox-equivalent (sample-mol/trolox-mol) was calculated as follows: Trolox−equivalent (mol−trolox/mol−sample) = Ss/St where Ss is the slope of the sample and St is the slope of trolox.

[2] = dissolution of the sample in water for the α-glucosidase assay; format: physicochemical; design: key: −: Did not dissolve in water; conditions: samples prepared in H2O
Experimental: (§1) The α-glucosidase inhibitory activity of all samples was assayed utilizing a commercially available FUJIFILM α-glucosidase inhibitory activity assay kit. In total, 25 μL of each sample (25–2000 μg/mL in H2O ) or acarbose (0.5–8 μg/mL in H2O ), 50 μL of 18.5 mM maltose diluted in maleic anhydride buffer (100 mM, pH = 6.0), and 25 μL of the rat α-glucosidase solution were incubated in a micro-tube at 37 °C for 30 min. Subsequently, 400 μL of purified water was added to the solution and the reaction mixture was boiled for 3 min to deactivate α-glucosidase. The generated glucose was measured by LabAssay™ glucose (mutarotase-GOD method). In total, 100 μL of the reaction solution and 150 μL of the coloring solution were incubated in 96-well plates at 37 °C for 10 min, and the absorbance was recorded at 505 nm using a microplate reader (Bio-Rad, Model 680). The inhibition percentage was calculated using the following Equation: Inhibition percentage (%) = 1−As−Ab/Ac ×100 where As is the absorbance of the analyzed sample, Ab is the absorbance of the blank (immediate deactivation), and Ac is the absorbance of the control ([…]). Acarbose was used as the positive control.

rat α-glucosidase = assay: α-glucosidase inhibitory activity assay (FUJIFILM kit, maltose substrate, glucose measured by mutarotase-GOD method); format: biochemical; conditions: rat α-glucosidase, 18.5 mM maltose, maleic anhydride buffer pH 6.0, 37 °C, 30 min; mean ± S.D. of n = 2
Experimental: as §1

Compound: O=C(OC[C@H]1OC[C@H](OC(=O)c2cccc(O)c2)[C@@H](OC(=O)c2cccc(O)c2)[C@@H]1OC(=O)c1cccc(O)c1)c1cccc(O)c1 [Compound 57, 1,5-Anhydro-2,3,4,6-tetrakis-O-(3-hydroxybenzoyl)-D-glucitol]
- antioxidant activity (in words) [1]: no antioxidant activity was observed
- EC50 ([1]; mean ± S.D. of n = 3): > 78 µM
- solubility in water (no α-glucosidase IC50 obtained) [2]: −^d

Compound: O=C(OC[C@H]1OC[C@H](OC(=O)c2ccc(O)cc2)[C@@H](OC(=O)c2ccc(O)cc2)[C@@H]1OC(=O)c1ccc(O)cc1)c1ccc(O)cc1 [Compound 58, 1,5-Anhydro-2,3,4,6-tetrakis-O-(4-hydroxybenzoyl)-D-glucitol]
- antioxidant activity (in words) [1]: no antioxidant activity was observed
- EC50 ([1]; mean ± S.D. of n = 3): > 78 µM
- solubility in water (no α-glucosidase IC50 obtained) [2]: −^d

Compound: COC(=O)c1cc(O)cc(O)c1 [Methyl 3,5-dihydroxybenzoate, methyl 3,5-dihydroxybenzoate, reference compound]
- IC50 (rat α-glucosidase): > 300 µM
- antioxidant activity (in words) [1]: did not exhibit any notable activity

Compound: COC(=O)c1cccc(O)c1 [Methyl 3-hydroxybenzoate, methyl 3-hydroxybenzoate, reference compound]
- IC50 (rat α-glucosidase): > 660 µM
- antioxidant activity (in words) [1]: did not exhibit any notable activity

Now from value to compound, other results behind:

- IC50 (rat α-glucosidase): > 660 µM
Compound: COC(=O)c1ccc(O)cc1 [Methyl 4-hydroxybenzoate, methyl 4-hydroxybenzoate, reference compound]
- antioxidant activity (in words) [1]: did not exhibit any notable activity

- IC50 (rat α-glucosidase): 90.5 ± 6.97 µM
- EC50 ([1]; mean ± S.D. of n = 3): 19.6 ± 0.11 µM
Compound: COC(=O)c1cc(O)c(O)c(O)c1 [Methyl gallate, reference compound]
- Antioxidant Trolox-eq (TE) ([1]; mean ± S.D. of n = 3): 2.42 ± 0.27

- IC50 (rat α-glucosidase): 3.37 ± 0.04 µM
- EC50 ([1]; mean ± S.D. of n = 3): 6.31 ± 0.27 µM
Compound: Tellimagrandin I [reference compound]
- Antioxidant Trolox-eq (TE) ([1]; mean ± S.D. of n = 3): 7.04 ± 0.37
- Antioxidant Trolox-eq (TE) ([1]; mean ± S.D. of n = 3, listed as tellimagrandin I): 7.04
